Test results taken from patent US11000033B2, “Ketone or oxime compound, and herbicide” (NISSAN CHEMICAL CORPORATION, priority 2014, dated 2021).

How the values were obtained:
Format in all cases: in vivo
[1] = tested on: directly sowed rice plant; test: Test Example 3: effect on crop by foliage application, Wagner pot (symbol b); conditions: application herbicide amount 320 g/ha
Method in brief: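 Wagner pot (1/10000 are), alluvial soil, submerged 0.1–0.5 cm; sown E. crus-galli var. crus-galli, L. chinensis, C. difformis, rice; greenhouse 25–30 °C.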

[2] = tested on: rapeseed; test: Test Example 4: effect on crop by soil treatment (symbol g); conditions: application herbicide amount 320 g/ha
Method in brief: (§1)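 Soil-treatment setup: crop and weed seeds were spot-sown into sterilized diluvial soil, then buried beneath approximately 1.5 cm of it, and the boxes were housed in a 25–30° C. greenhouse.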

[3] = tested on: beet; test: Test Example 4: effect on crop by soil treatment (symbol f); conditions: application herbicide amount 320 g/ha
Method in brief: as §1

[4] = tested on: Abutilon theophrasti; test: Test Example 5: herbicidal effect by foliage application, plastic box (symbol M); conditions: 320 g/ha, 3 weeks after application
Method in brief: (§2)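 Post-emergence spray; diluvial soil (sterilized), ~1.5 cm seed cover; greenhouse 25–30° C; 14-day-old plants; water-diluted emulsion at predetermined dose; visual score at 3 wk post-treatment.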

[5] = tested on: Chenopodium album; test: Test Example 4: herbicidal effect by soil treatment (symbol O); conditions: application herbicide amount 320 g/ha
Method in brief: (§3)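 Seeds were sown in sterilized diluvial soil, covered with about 1.5 cm of soil, and the soil surface was sprayed with a water-diluted emulsion of the compound at a predetermined rate. Plants grew in a greenhouse at 25° C. to 30° C.; effects were scored visually 3 weeks after application.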

[6] = tested on: Echinochloa crus-galli var. crus-galli; test: Test Example 3: herbicidal effect by foliage application, Wagner pot (symbol H); conditions: application herbicide amount 320 g/ha
Method in brief: (§4)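 Weeds and rice were sown in alluvial soil under 0.1–0.5 cm of standing water and grown for 14 days in a 25–30 °C greenhouse. An emulsion of the compound, diluted in water to a set dose, was sprayed evenly onto the foliage. Effect was scored against fixed criteria 3 weeks after treatment.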

[7] = tested on: Apera spica-venti; test: Test Example 4: herbicidal effect by soil treatment (symbol L); conditions: application herbicide amount 320 g/ha
Method in brief: as §3

[8] = tested on: Echinochloa crus-galli var. crus-galli; test: Test Example 4: herbicidal effect by soil treatment (symbol H); conditions: application herbicide amount 320 g/ha
Method in brief: as §3

[9] = tested on: Stellaria media; test: Test Example 5: herbicidal effect by foliage application, plastic box (symbol P); conditions: 320 g/ha, 3 weeks after application
Method in brief: as §2

[10] = tested on: Apera spica-venti; test: Test Example 5: herbicidal effect by foliage application, plastic box (symbol L); conditions: 320 g/ha, 3 weeks after application
Method in brief: as §2

[11] = tested on: Cyperus difformis; test: Test Example 3: herbicidal effect by foliage application, Wagner pot (symbol E); conditions: application herbicide amount 320 g/ha
Method in brief: as §4

[12] = tested on: transplanted rice plant; test: Test Example 1: effect on crop, application before weed generation in submerged conditions (symbol a); conditions: application herbicide amount 320 g/ha
Method in brief: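 Rice at 2.5 leaf stage transplanted into submerged soil (4 cm depth) sown with three weed species; herbicide applied before weed emergence.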

[13] = tested on: Scirpus juncoides; test: Test Example 2: herbicidal activity, application during weed generation in submerged conditions (symbol B); conditions: Table 23; application herbicide amount 320 g/ha; grade 0-5 by criteria of Test Example 1
Method in brief: (§5)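 Alluvial soil in pots was flooded to a 4 cm water depth and sown with a mix of the three weed species, then grown in a greenhouse at 25° C. to 30° C. At the one- to two-leaf stage, an emulsifiable formulation diluted in water to a set dose was applied to the water surface. Effects were scored visually 3 weeks later.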

[14] = tested on: Leptochloa chinensis; test: Test Example 3: herbicidal effect by foliage application, Wagner pot (symbol D); conditions: application herbicide amount 320 g/ha
Method in brief: as §4

[15] = tested on: Chenopodium album; test: Test Example 5: herbicidal effect by foliage application, plastic box (symbol O); conditions: 320 g/ha, 3 weeks after application
Method in brief: as §2

[16] = tested on: Monochoria vaginalis; test: Test Example 2: herbicidal activity, application during weed generation in submerged conditions (symbol C); conditions: Table 23; application herbicide amount 320 g/ha; grade 0-5 by criteria of Test Example 1
Method in brief: as §5

CC(=O)CC1CC(O)=C(c2c(C)cc(OCc3ccccc3)cc2C)C1=O (centres unmarked) [7-018]
effect on crop b (directly sowed rice plant), grade 0-5 [1]: 3 (Herbicidal ratio of 40% or higher and lower than 70%) | Effect on crop grade, g: rapeseed [2]: 0 (Herbicidal ratio of 5% or lower (almost no effect)) | Effect on crop grade, f: beet [3]: 0 (Herbicidal ratio of 5% or lower (almost no effect)) | M: Abutilon theophrasti, herbicidal effect (criteria of Test Example 1) [4]: 0 (Herbicidal ratio of 5% or lower (almost no effect)) | Herbicidal effect grade, O: Chenopodium album [5]: 0 (Herbicidal ratio of 5% or lower (almost no effect)) | herbicidal effect on H (Echinochloa crus-galli var. crus-galli), grade 0-5 [6]: 3 (Herbicidal ratio of 40% or higher and lower than 70%) | Herbicidal effect grade, L: Apera spica-venti [7]: 0 (Herbicidal ratio of 5% or lower (almost no effect)) | Herbicidal effect grade, H: Echinochloa crus-galli var. crus-galli [8]: 0 (Herbicidal ratio of 5% or lower (almost no effect)) | P: Stellaria media, herbicidal effect (criteria of Test Example 1) [9]: 0 (Herbicidal ratio of 5% or lower (almost no effect)) | L: Apera spica-venti, herbicidal effect (criteria of Test Example 1) [10]: 2 (Herbicidal ratio of 20% or higher and lower than 40%) | herbicidal effect on E, grade 0-5 [11]: 3 (Herbicidal ratio of 40% or higher and lower than 70%) | Effect grade on crop, a: transplanted rice plant [12]: 2 (Herbicidal ratio of 20% or higher and lower than 40%) | Herbicidal effect grade, B: Scirpus juncoides [13]: 0 (Herbicidal ratio of 5% or lower (almost no effect)) | herbicidal effect on D (Leptochloa chinensis), grade 0-5 [14]: 5 (Herbicidal ratio of 90% or more (almost completely withered)) | O: Chenopodium album, herbicidal effect (criteria of Test Example 1) [15]: 0 (Herbicidal ratio of 5% or lower (almost no effect)) | Herbicidal effect grade, C: Monochoria vaginalis [16]: 0 (Herbicidal ratio of 5% or lower (almost no effect))

COc1cc(C)c(C2=C(O)CC(CC(C)=O)C2=O)c(C)c1 (centres unmarked) [7-020]
effect on crop b (directly sowed rice plant), grade 0-5 [1]: 4 (Herbicidal ratio of 70% or higher and lower than 90%) | Effect on crop grade, g: rapeseed [2]: 0 (Herbicidal ratio of 5% or lower (almost no effect)) | Effect on crop grade, f: beet [3]: 0 (Herbicidal ratio of 5% or lower (almost no effect)) | M: Abutilon theophrasti, herbicidal effect (criteria of Test Example 1) [4]: 0 (Herbicidal ratio of 5% or lower (almost no effect)) | Herbicidal effect grade, O: Chenopodium album [5]: 0 (Herbicidal ratio of 5% or lower (almost no effect)) | herbicidal effect on H (Echinochloa crus-galli var. crus-galli), grade 0-5 [6]: 4 (Herbicidal ratio of 70% or higher and lower than 90%) | Herbicidal effect grade, L: Apera spica-venti [7]: 0 (Herbicidal ratio of 5% or lower (almost no effect)) | Herbicidal effect grade, H: Echinochloa crus-galli var. crus-galli [8]: 0 (Herbicidal ratio of 5% or lower (almost no effect)) | P: Stellaria media, herbicidal effect (criteria of Test Example 1) [9]: 0 (Herbicidal ratio of 5% or lower (almost no effect)) | L: Apera spica-venti, herbicidal effect (criteria of Test Example 1) [10]: 3 (Herbicidal ratio of 40% or higher and lower than 70%) | herbicidal effect on E, grade 0-5 [11]: 3 (Herbicidal ratio of 40% or higher and lower than 70%) | Effect grade on crop, a: transplanted rice plant [12]: 2 (Herbicidal ratio of 20% or higher and lower than 40%) | Herbicidal effect grade, B: Scirpus juncoides [13]: 0 (Herbicidal ratio of 5% or lower (almost no effect)) | herbicidal effect on D (Leptochloa chinensis), grade 0-5 [14]: 5 (Herbicidal ratio of 90% or more (almost completely withered)) | O: Chenopodium album, herbicidal effect (criteria of Test Example 1) [15]: 0 (Herbicidal ratio of 5% or lower (almost no effect)) | Herbicidal effect grade, C: Monochoria vaginalis [16]: 0 (Herbicidal ratio of 5% or lower (almost no effect))
